How the values were obtained:
Experiment in all cases: whole plant or invertebrate
Format in all cases: in vivo
[1] = tested on: western flower thrip (Frankliniella occidentalis Pergande); conditions: single compound, spray, 7 days
Outline: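 Compounds in 10% acetone/90% water with 300 ppm non-ionic surfactant were sprayed onto 5- to 7-day-old bean plants, 3 replicates. After 1 h drying, 22–27 adult thrips were added per unit. Units were held 7 days at 25° C, 45–55% RH, assessing contact and/or systemic control.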

[2] = tested on: green peach aphid (Myzus persicae Sulzer); conditions: Green Peach Aphid
Outline: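 Compounds formulated in 10% acetone/water with 300 ppm X-77 surfactant were atomized onto aphid-infested radish seedlings, with three replicates per treatment. Infestation was 30–40 aphids transferred on excised leaf pieces, covering contact and systemic exposure. Test units stayed 6 days in a growth chamber at 19–21 °C and 50–70% relative humidity.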

[3] = tested on: cotton melon aphid (Aphis gossypii Glover)
Outline: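 Cotton plants (6–7 days old) pre-infested with 30–40 aphids by cut-leaf method, sprayed with compound (ppm) in 10% acetone/90% water with 300 ppm X-77 surfactant, three replicates. Held 6 days at 19–21 °C, 50–70% RH; contact and/or systemic control assessed.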

[4] = tested on: potato leafhopper (Empoasca fabae Harris); conditions: alone
Outline: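 Bean plants (5–6 days old, one primary leaf excised) were sprayed with 1 mL of compound in 10% acetone/water with 300 ppm X-77 surfactant, 3 replicates. After drying for 1 h, each unit was infested with 5 adult leafhoppers. Units were held 6 days at 19–21 °C and 50–70% RH.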

[5] = tested on: silverleaf whitefly (Bemisia argentifolii Bellows and Perring); conditions: Table 2B
Outline: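 Whitefly-egg-infested 12–14-day-old cotton plants sprayed with compound in 10% acetone/90% water plus 300 ppm non-ionic surfactant, in triplicate. Plants then held 13 days at 28 °C and 50–70% relative humidity before mortality assessment.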

[6] = tested on: corn planthopper (Peregrines maidis); conditions: Corn Plant Hopper
Outline: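 Compounds in 10% acetone/90% water with 300 ppm X-77 surfactant sprayed (3 replications) onto 3- to 4-day-old corn plants, dried 1 h, then infested with 10–20 corn planthopper nymphs aged 18–20 days. Held 6 days at 19-21° C. and 50-70% relative humidity; contact and/or systemic control assessed.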

Pymetrozine
% mortality (obs) ([1]; rate 10 ppm): 100% | % mortality (obs) ([1]; rate 100 ppm): 100% | % mortality (obs) ([1]; rate 1000 ppm): 100% | % mortality (obs) ([2]; rate 0.1 ppm): 13% | % mortality (obs) ([2]; rate 0.5 ppm): 41% | % mortality (obs) ([2]; rate 2 ppm): 79% | % mortality (obs) ([3]; rate 0.1 ppm): 22% | % mortality (obs) ([3]; rate 0.5 ppm): 38% | % mortality (obs) ([3]; rate 2 ppm): 62% | % mortality (obs) ([4]; rate 2 ppm): 0% | % mortality (obs) ([4]; rate 15 ppm): 13% | % mortality (obs) ([4]; rate 200 ppm): 60% | % mortality (obs) ([5]; rate 10 ppm): 3% | % mortality (obs) ([5]; rate 100 ppm): 7% | % mortality (obs) ([5]; rate 1000 ppm): 52% | % mortality (obs) ([6]; rate 2 ppm): 51% | % mortality (obs) ([6]; rate 10 ppm): 29% | % mortality (obs) ([6]; rate 30 ppm): 89%

Pyridalyl
% mortality (obs) ([1]; rate 5 ppm): 30% | % mortality (obs) ([1]; rate 50 ppm): 60% | % mortality (obs) ([1]; rate 500 ppm): 100% | % mortality (obs) ([2]; rate 1 ppm): 18% | % mortality (obs) ([2]; rate 10 ppm): 8% | % mortality (obs) ([2]; rate 20 ppm): 3% | % mortality (obs) ([3]; rate 1 ppm): 22% | % mortality (obs) ([3]; rate 1.5 ppm): 34% | % mortality (obs) ([3]; rate 2 ppm): 32% | % mortality (obs) ([4]; rate 0.5 ppm): 13% | % mortality (obs) ([4]; rate 5 ppm): 13% | % mortality (obs) ([4]; rate 50 ppm): 7% | % mortality (obs) ([5]; rate 10 ppm): 0% | % mortality (obs) ([5]; rate 25 ppm): 0% | % mortality (obs) ([5]; rate 100 ppm): 0% | % mortality (obs) ([6]; rate 10 ppm): 2% | % mortality (obs) ([6]; rate 100 ppm): 6% | % mortality (obs) ([6]; rate 1000 ppm): 11%

Pyriproxyfen
% mortality (obs) ([1]; rate 10 ppm): 100% | % mortality (obs) ([1]; rate 100 ppm): 100% | % mortality (obs) ([1]; rate 1000 ppm): 100% | % mortality (obs) ([2]; rate 10 ppm): 23% | % mortality (obs) ([2]; rate 100 ppm): 12% | % mortality (obs) ([2]; rate 1000 ppm): 26% | % mortality (obs) ([3]; rate 10 ppm): 14% | % mortality (obs) ([3]; rate 100 ppm): 28% | % mortality (obs) ([3]; rate 1000 ppm): 33% | % mortality (obs) ([4]; rate 10 ppm): 13% | % mortality (obs) ([4]; rate 100 ppm): 0% | % mortality (obs) ([4]; rate 1000 ppm): 7% | % mortality (obs) ([5]; rate 10 ppm): 100% | % mortality (obs) ([5]; rate 15 ppm): 100% | % mortality (obs) ([5]; rate 20 ppm): 100% | % mortality (obs) ([6]; rate 10 ppm): 0% | % mortality (obs) ([6]; rate 100 ppm): 8% | % mortality (obs) ([6]; rate 1000 ppm): 12%

Thiacloprid
% mortality (obs) ([1]; rate 1 ppm): 20% | % mortality (obs) ([1]; rate 100 ppm): 30% | % mortality (obs) ([1]; rate 3000 ppm): 40% | % mortality (obs) ([2]; rate 0.2 ppm): 13% | % mortality (obs) ([2]; rate 0.3 ppm): 68% | % mortality (obs) ([2]; rate 0.4 ppm): 42% | % mortality (obs) ([3]; rate 0.3 ppm): 50% | % mortality (obs) ([3]; rate 1.5 ppm): 100% | % mortality (obs) ([3]; rate 6 ppm): 100% | % mortality (obs) ([4]; rate 0.2 ppm): 73% | % mortality (obs) ([4]; rate 0.5 ppm): 93% | % mortality (obs) ([4]; rate 1.5 ppm): 80% | % mortality (obs) ([5]; rate 15 ppm): 40% | % mortality (obs) ([5]; rate 25 ppm): 83% | % mortality (obs) ([5]; rate 35 ppm): 61% | % mortality (obs) ([6]; rate 0.3 ppm): 6% | % mortality (obs) ([6]; rate 3 ppm): 100% | % mortality (obs) ([6]; rate 30 ppm): 100%
